Assay [1] in a line: Inhibition of LSD2 (unknown origin). The arrangement: species or system Homo sapiens.
In another assay the test system is LNCaP. The assay is described as follows: Growth inhibition of human LNCaP cells incubated for 6 to 7 days by MTS assay. The format is functional. Particulars: time 6-7 day.
In assay [2] the target is T1, Amine oxidase [flavin-containing] A (Homo sapiens, UniProt P21397).
T1 sequence (P21397 whole entry): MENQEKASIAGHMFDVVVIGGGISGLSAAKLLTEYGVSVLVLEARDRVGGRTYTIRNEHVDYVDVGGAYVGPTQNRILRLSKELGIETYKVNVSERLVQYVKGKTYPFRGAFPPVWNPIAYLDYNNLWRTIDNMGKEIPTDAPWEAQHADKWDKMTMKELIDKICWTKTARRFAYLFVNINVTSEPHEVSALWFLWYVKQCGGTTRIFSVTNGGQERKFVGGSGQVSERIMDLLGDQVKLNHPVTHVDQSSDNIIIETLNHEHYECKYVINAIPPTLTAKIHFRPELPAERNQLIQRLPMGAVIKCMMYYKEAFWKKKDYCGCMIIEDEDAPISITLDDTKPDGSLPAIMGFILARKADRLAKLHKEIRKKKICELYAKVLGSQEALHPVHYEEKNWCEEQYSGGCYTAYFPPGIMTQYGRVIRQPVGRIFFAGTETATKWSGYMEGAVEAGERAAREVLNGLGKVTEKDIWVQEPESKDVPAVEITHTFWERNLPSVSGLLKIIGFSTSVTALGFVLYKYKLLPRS
The assay is described as follows: Inhibition of MAO-A (unknown origin).

Assay [3] deals with CWR22R. Put plainly: Growth inhibition of human 22Rv1 cells incubated for 6 to 7 days by MTS assay. To be noted: time 6-7 day. The format is functional.
The subject of the next assay is PC-3. Put plainly: Growth inhibition of human PC-3 cells incubated for 6 to 7 days by MTS assay. The format is functional. To be noted: time 6-7 day.
In assay [4] the test system is CWR22R. The assay is described as follows: Induction of apoptosis in human 22Rv1 cells at 10 uM incubated for 5 days by Annexin V-FITC/PI staining based flow cytometric analysis (reference value: 8.97 %). The format is functional. Particulars: time 5 day.
Assay [5] deals with T2, Lysine-specific histone demethylase 1A (Homo sapiens, UniProt O60341). The assay is described as follows: Inhibition of recombinant human LSD1 using Histone H3 as fluorometric substrate incubated for 30 mins by HRP based plate reader assay.
Assay [6] has as its target T2, Lysine-specific histone demethylase 1A. Put plainly: Inhibition of LSD1 in human 22Rv1 cells assessed as upregulation of H3K9me2 expression at 10 uM incubated for 24 hrs by Western blotting analysis. In kind it is cell-based.
For assay [7] the target is unchanged. The assay is described as follows: Inhibition of LSD1 in human LNCaP cells assessed as upregulation of H3K9me2 expression at 10 uM incubated for 24 hrs by Western blotting analysis. In kind it is cell-based.

The text below walks through data of ChEMBL document CHEMBL5584353, “Design, Synthesis, and Biological Evaluation of Potent EZH2/LSD1 Dual Inhibitors for Prostate Cancer” (J Med Chem, 2024).

Activity calls are given as the source filed them. The calls are words filed in the database; no cut-off is given here. Where only a bound is given, the exact number is not on record here.

As for `NC1CCC(N[C@@H]2C[C@H]2c2ccccc2)CC1` (stereo partly drawn), the figures for the IC50 in [1] and in assay [2] were 24.5 µM and 510 nM, respectively. Besides, the 50% growth inhibitory concentration (GI50) in the assay on LNCaP, in the assay with CWR22R [3] and in the assay on PC-3 was above 30 µM each time. In addition, the Activity with CWR22R [4] was 11.56%.
Regarding `CCN(c1cc(-c2ccc([C@@H]3C[C@H]3N(Cc3ccccc3)C(=O)OC(C)(C)C)cc2)cc(C(=O)NCc2c(C)cc(C)[nH]c2=O)c1C)C1CCOCC1` (racemic), the results for the GI50 with LNCaP, in the assay on CWR22R [3] and in the assay on PC-3 were 13.8 µM, above 30 µM and above 30 µM, respectively. Moreover, in assay [5], the half-inhibitory concentration (IC50) was above 3 µM.
Turning to `CCN(c1cc(-c2ccc([C@@H]3C[C@H]3N)cc2)cc(C(=O)NCc2c(C)cc(C)[nH]c2=O)c1C)C1CCOCC1` (racemic), the GI50 with LNCaP stood at 6.83 µM; with CWR22R [3], 16.3 µM; with PC-3 it was 23.9 µM.
Consider `CCN(c1cc(-c2ccc([C@@H]3C[C@H]3NCC3CC3)cc2)cc(C(=O)NCc2c(C)cc(C)[nH]c2=O)c1C)C1CCOCC1` (racemic), for which the GI50 was 13.8 µM with LNCaP, 10.4 µM in the assay on CWR22R [3] and above 30 µM in the assay on PC-3.
In the case of `CCN(c1cc(-c2cccc([C@H]3C[C@@H]3N(C(=O)OC(C)(C)C)C3CCOCC3)c2)cc(C(=O)NCc2c(C)cc(C)[nH]c2=O)c1C)C1CCOCC1` (racemic), the GI50 with LNCaP stood at 3.47 µM; in the assay with CWR22R [3], 6.92 µM; in the assay with PC-3 it was 3.87 µM. The IC50 in assay [5] was above 3 µM.
`CCN(c1cc(-c2cccc([C@@H]3C[C@H]3N)c2)cc(C(=O)NCc2c(C)cc(C)[nH]c2=O)c1C)C1CCOCC1` (racemic): the figures for the GI50 in the assay with LNCaP, in the assay with CWR22R [3] and in the assay on PC-3 were 12.4 µM, 26.2 µM and 13.5 µM, respectively. Further, the IC50 in [5] is above 3 µM.
As to `CCN(c1cc(-c2ccc([C@@H]3C[C@H]3NC3CCOCC3)cc2)cc(C(=O)NCc2c(C)cc(C)[nH]c2=O)c1C)C1CCOCC1` (racemic), the GI50 in the assay on LNCaP was 3.42 µM; in the assay on CWR22R [3] it was 4.39 µM; with PC-3, 12.7 µM.
In the case of `CCN(c1cc(-c2ccc([C@@H]3C[C@H]3N(CC(=O)N3CCN(C(=O)OC(C)(C)C)CC3)C(=O)OC(C)(C)C)cc2)cc(C(=O)NCc2c(C)cc(C)[nH]c2=O)c1C)C1CCOCC1` (racemic), the figures for the 50% growth inhibitory concentration (GI50) with LNCaP, in the assay with CWR22R [3] and with PC-3 were 6.49 µM, 13.1 µM and above 30 µM, respectively. In addition, the IC50 in assay [5] was above 3 µM.
As for `CCN(c1cc(-c2ccc([C@@H]3C[C@H]3NCC(=O)N3CCNCC3)cc2)cc(C(=O)NCc2c(C)cc(C)[nH]c2=O)c1C)C1CCOCC1` (racemic), the GI50 in the assay with LNCaP is 4.09 µM; in the assay with CWR22R [3], 18.9 µM; with PC-3, above 30 µM.
For `CCN(c1cc(-c2ccc([C@@H]3C[C@H]3NC(=O)C(C)(C)C)cc2)cc(C(=O)NCc2c(C)cc(C)[nH]c2=O)c1C)C1CCOCC1` (racemic), the concentration for 50% growth inhibition (GI50) with LNCaP was 4.42 µM; in the assay on CWR22R [3] it was 13.3 µM; in the assay with PC-3, 7.96 µM. Besides, the inhibition result in assay [6] and in [7] was “inactive” each time.
For the compound `CCN(c1cc(-c2ccc([C@@H]3C[C@H]3N(CC(=O)N3CCOCC3)C(=O)OC(C)(C)C)cc2)cc(C(=O)NCc2c(C)cc(C)[nH]c2=O)c1C)C1CCOCC1` (racemic), the GI50 was found to be 5.11 µM in the assay with LNCaP, 7.83 µM in the assay on CWR22R [3] and 12.6 µM in the assay with PC-3. In addition, the IC50 in assay [5] was above 3 µM.
As for `CCN(c1cc(-c2cccc([C@@H]3C[C@H]3NC3CCOCC3)c2)cc(C(=O)NCc2c(C)cc(C)[nH]c2=O)c1C)C1CCOCC1` (racemic), the GI50 was 21 µM with LNCaP, 10.1 µM with CWR22R [3] and above 30 µM in the assay with PC-3.
As for `CCN(c1cc(-c2ccc([C@@H]3C[C@H]3NCc3ccccc3F)cc2)cc(C(=O)NCc2c(C)cc(C)[nH]c2=O)c1C)C1CCOCC1` (racemic), the values for the GI50 in the assay on LNCaP, in the assay on CWR22R [3] and with PC-3 were 5.39 µM, 27.4 µM and above 30 µM, respectively.
As for `N[C@@H]1C[C@H]1c1ccccc1.N[C@H]1C[C@@H]1c1ccccc1` (racemic) [TRANYLCYPROMINE], the GI50 in the assay with LNCaP and in the assay with PC-3 was above 30 µM in each case.
For the compound `CCN(c1cc(-c2ccc([C@@H]3C[C@H]3NCC3CCOCC3)cc2)cc(C(=O)NCc2c(C)cc(C)[nH]c2=O)c1C)C1CCOCC1` (racemic), the IC50 is 43.7 µM in assay [1] and 2050 nM in [2]. The GI50 in the assay with LNCaP was found to be 2.64 µM; in the assay on CWR22R [3] it was 4.03 µM; in the assay with PC-3 it was 9.23 µM.
For the compound `CCN(c1cc(-c2ccc([C@@H]3C[C@H]3N(Cc3ccccc3F)C(=O)OC(C)(C)C)cc2)cc(C(=O)NCc2c(C)cc(C)[nH]c2=O)c1C)C1CCOCC1` (racemic), the GI50 in the assay on LNCaP was determined as 5.19 µM; in the assay on CWR22R [3], 7.13 µM; with PC-3, 5.13 µM. In assay [5], the IC50 was above 3 µM.
For `CCN(c1cc(-c2ccc([C@@H]3C[C@H]3N(CC3CC3)C(=O)OC(C)(C)C)cc2)cc(C(=O)NCc2c(C)cc(C)[nH]c2=O)c1C)C1CCOCC1` (racemic), the 50% growth inhibitory concentration (GI50) is 9.73 µM in the assay on LNCaP, 18.8 µM in the assay on CWR22R [3] and above 30 µM with PC-3. Further, the IC50 in [5] is above 3 µM.
For the compound `CCN(c1cc(-c2ccc([C@@H]3C[C@H]3NC3CCCCC3)cc2)cc(C(=O)NCc2c(C)cc(C)[nH]c2=O)c1C)C1CCOCC1` (racemic), the values for the concentration for 50% growth inhibition (GI50) with LNCaP, in the assay with CWR22R [3] and with PC-3 were 5.34 µM, 4.61 µM and 12 µM, respectively.
With `CCN(c1cc(-c2ccc([C@@H]3C[C@H]3NCc3ccccc3OC)cc2)cc(C(=O)NCc2c(C)cc(C)[nH]c2=O)c1C)C1CCOCC1` (racemic), the figures for the GI50 with LNCaP, with CWR22R [3] and in the assay on PC-3 were 5.45 µM, 4.87 µM and 6.41 µM, respectively.
For `CCN(c1cc(-c2ccc([C@@H]3C[C@H]3N(Cc3ccccc3OC)C(=O)OC(C)(C)C)cc2)cc(C(=O)NCc2c(C)cc(C)[nH]c2=O)c1C)C1CCOCC1` (racemic), the concentration for 50% growth inhibition (GI50) in the assay on LNCaP was 16.9 µM; with CWR22R [3] it was 16.7 µM; in the assay with PC-3, above 30 µM. In addition, the IC50 in assay [5] was above 3 µM.
With `CCN(c1cc(-c2ccc([C@@H]3C[C@H]3N(C(=O)OC(C)(C)C)C3CCOCC3)cc2)cc(C(=O)NCc2c(C)cc(C)[nH]c2=O)c1C)C1CCOCC1` (racemic), the concentration for 50% growth inhibition (GI50) with LNCaP came out at 3.4 µM; in the assay with CWR22R [3], 8.86 µM; with PC-3, 3.27 µM. Also, the IC50 in assay [5] was above 3 µM.
For the compound `CCN(c1cc(-c2ccc([C@@H]3C[C@H]3NCc3ccccc3)cc2)cc(C(=O)NCc2c(C)cc(C)[nH]c2=O)c1C)C1CCOCC1` (racemic), the 50% growth inhibitory concentration (GI50) in the assay with LNCaP stood at 3.41 µM; in the assay with CWR22R [3], 3.9 µM; in the assay on PC-3 it was 9.24 µM.
Regarding `CCN(c1cc(-c2cccc([C@@H]3C[C@H]3NCC3CCOCC3)c2)cc(C(=O)NCc2c(C)cc(C)[nH]c2=O)c1C)C1CCOCC1` (racemic), the GI50 in the assay on LNCaP came to 5.7 µM; with CWR22R [3], 4.81 µM; in the assay with PC-3 it was 10.2 µM.
Take `CCN(c1cc(-c2cccc([C@H]3C[C@@H]3NC(=O)OC(C)(C)C)c2)cc(C(=O)NCc2c(C)cc(C)[nH]c2=O)c1C)C1CCOCC1` (racemic): the GI50 in the assay on LNCaP was determined as 7.22 µM; with CWR22R [3], 21.7 µM; with PC-3, 19.3 µM. Moreover, in [5], the IC50 is above 3 µM.
In the case of `CCN(c1cc(-c2cccc([C@H]3C[C@@H]3N(CC3CCOCC3)C(=O)OC(C)(C)C)c2)cc(C(=O)NCc2c(C)cc(C)[nH]c2=O)c1C)C1CCOCC1` (racemic), the GI50 worked out at 3.38 µM with LNCaP, 6.05 µM with CWR22R [3] and 3.68 µM with PC-3. Moreover, the IC50 in [5] was above 3 µM.
As to `CCN(c1cc(-c2ccc([C@@H]3C[C@H]3NCC(=O)N3CCOCC3)cc2)cc(C(=O)NCc2c(C)cc(C)[nH]c2=O)c1C)C1CCOCC1` (racemic), the concentration for 50% growth inhibition (GI50) in the assay on LNCaP was 6.01 µM; in the assay with CWR22R [3], 19.7 µM; in the assay with PC-3 it was above 30 µM.
Consider `CCN(c1cc(-c2ccc([C@@H]3C[C@H]3N(C(=O)OC(C)(C)C)C3CCCCC3)cc2)cc(C(=O)NCc2c(C)cc(C)[nH]c2=O)c1C)C1CCOCC1` (racemic), for which the GI50 with LNCaP was 5.02 µM; with CWR22R [3], 24.3 µM; in the assay on PC-3, 18.1 µM. In addition, the IC50 in assay [5] was above 3 µM.
Regarding `CCN(c1cc(-c2ccc([C@@H]3C[C@H]3NC(=O)OC(C)(C)C)cc2)cc(C(=O)NCc2c(C)cc(C)[nH]c2=O)c1C)C1CCOCC1` (racemic), the GI50 came to 3.62 µM with LNCaP, 5.12 µM in the assay with CWR22R [3] and 2.45 µM in the assay with PC-3. Further, the IC50 in assay [5] was above 3 µM.
